What was measured:
human D4.2 receptor = target: T1, human D4.2 receptor (Homo sapiens, UniProt P21917, DEL265-296); assay: Radioligand binding to dopamine receptor D4.2 ([3H] Spiperone, CHO-K1 membranes); conditions: read-out: Dopamine receptors, % inhibition D4.2
T1 construct: expressed in transfected cells; host or cells: CHO-K1
T1 sequence (P21917 with tags, fused parts or gaps DEL265-296): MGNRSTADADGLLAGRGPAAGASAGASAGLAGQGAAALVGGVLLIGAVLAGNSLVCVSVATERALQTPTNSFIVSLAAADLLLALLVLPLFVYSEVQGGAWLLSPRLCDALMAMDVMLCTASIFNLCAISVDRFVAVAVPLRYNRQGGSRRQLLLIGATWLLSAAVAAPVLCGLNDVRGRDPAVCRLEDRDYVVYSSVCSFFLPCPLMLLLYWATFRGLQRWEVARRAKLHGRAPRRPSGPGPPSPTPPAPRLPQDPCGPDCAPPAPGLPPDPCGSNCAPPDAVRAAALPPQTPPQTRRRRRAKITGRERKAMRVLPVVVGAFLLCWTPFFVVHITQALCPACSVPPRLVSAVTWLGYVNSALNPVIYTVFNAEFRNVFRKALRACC
Procedure: Screening of the disclosed compounds for potential ability to interact with dopamine receptor D4.2 is carried out by method of radioligand binding. […] From the cells transfected in this way membrane species are prepared by homogenization of these cells in glass homogenizer with the subsequent separation of plasmatic membranes from cell nuclei, mitochondrias and cell wreckages by differential centrifugation. […] After incubation samples are filtered in vacuo on glass-microfiber filters G/F (Millipor, USA), filters are washed three times with cold solution of medium and radioactivity is measured by scintillation counter MicroBeta 340 (Perkin Elmer, USA). Nonspecific binding which makes up 10% of the overall binding is determined by incubation of membrane species with radioligand in the presence of 10 µM of Haloperidol.
Spiperone is used as positive control. Tested compounds' binding to the receptor is determined by their ability to displace radioligand and expressed in percent of displacement (%I). Values of %I are calculated according to the following equation: %I = (TA-CA)/(TA-NA)*100, [formula] wherein: TA - is overall radioactivity in the presence of radioligand only, CA - is radioactivity in the presence of radioligand and tested compound and NA - is radioactivity in the presence of radioligand and Haloperidol (10 µM).

imidazoline receptor I2 = assay: Radioligand binding to imidazoline receptor I2 ([3H] Idazoxan, rat brain membranes); conditions: 10 µM ligand
Procedure: For this purpose membrane species are prepared from rat (Wistar) brain homogenates by homogenization of them in glass homogenizer with the subsequent separation of plasmatic membranes from cell nuclei, mitochondrias and cell wreckages by differential centrifugation. […] After incubation the samples are filtered in vacuo on glass-microfiber filters G/F (Millipor, USA), filters are washed three times with cold solution of medium and radioactivity is measured by scintillation counter MicroBeta 340 (Perkin Elmer, USA). […] Idazoxan is used as positive control.
The tested compounds' binding to the receptor is determined by their ability to displace the radioligand and expressed in percent of displacement (%I). Values of %I are calculated according to the following equation: %I = (TA-CA)/(TA-NA)*100, [formula] wherein: TA - is the overall radioactivity in the presence of radioligand only, CA - is the radioactivity in the presence of radioligand and tested compound and NA - is a radioactivity in the presence of radioligand and Idazoxan (1 µM).

human D1 receptor = target: T2, human D1 receptor (Homo sapiens, UniProt P21728); assay: Radioligand binding to dopamine receptor D1 ([3H] SCH-23390, CHO membranes); conditions: read-out: Dopamine receptors, % inhibition D1
T2 construct: expressed in transfected cells; host or cells: CHO
Excerpt: For this purpose sDNA of human D1 receptor is expressed in CHO cells, as it was described in [Dearry A, Gingrich JA, Falardeau P, Fremeau RT Jr, Bates MD and Caron MG. Molecular cloning and expression of the gene for a human D1 dopamine receptor. Nature. […] Nature.

human D3 receptor = target: T3, human D3 receptor (Homo sapiens, UniProt P35462); assay: Radioligand binding to dopamine receptor D3 ([3H] Spiperone, CHO membranes)
T3 construct: expressed in transfected cells; host or cells: CHO
Excerpt: For this purpose sDNA of human D3 receptor is expressed in CHO cells, as it was described in [Sokoloff P, Giros B, Martres M-P, Bouthenet M-L and Schwartz J-C. Molecular cloning and characterization of novel dopamine receptor (D3) as target for neuroleptics. Nature. […] Molecular cloning and characterization of novel dopamine receptor (D3) as target for neuroleptics. Nature. […] Spiperone is used as positive control.

male mice of BALB/c line [1] = assay: Passive Avoidance of mice in the Shuttle Chamber, memory disturbed by Scopolamine; type: in vivo; conditions: Scopolamine 0.3 mg/kg, injected 30 minutes before training; figures 1-3
Procedure: Example 14. […] A shuttle chamber (Ugo Basile, Italy) consisted of two sections was used. […] The sections were connected through a hole which could be overlapped by a vertical door. The floor was made of transverse metal bars on which DC current impulses could be fed. Experiments were carried out in aged male mice of BALB/c line weighing 20-24 grams.
Each group consisted of at least 8 animals. Animal was placed in light section, and latent period of the first entry into dark chamber was registered. Then the vertical door was closed and the animal was punished by 0.6 mA DC current for 3 seconds. After that it was taken back to its homecage. In 22-24 hours the same animal was placed again in light section of the shuttle chamber and latent period of its first entry into dark section, the total time of its stay in light section, and the number of entries into dark section, were registered. Each monitoring lasted for 5 minutes.
Testing was carried out during the day time in isolated laboratory using white noise at level of about 70 decibel above human hearing threshold.
Scopolamine causes the disturbance of training (memory loss) that results in […].

mice [2] = assay: Mice Training in Morris Water Maze (Scopolamine); type: in vivo; conditions: unitary introduction of active ingredient; figures 10-13
Procedure: Example 17. Mice Training in Morris Water Maze. A round pool which was filled with water at 20-22°C was used. A round ceramic platform of 14cm height was placed in the pool. Animals's behavior was registered with automated computer videosystem in combination with software package of movement analysis Any-maze (Stoelting Co., US). Before testing mice suitable for training were selected. That was done by placing the platform 1cm above the water level and putting an animal on the platform for 20 seconds. Then the mouse was sunk into the water on the opposite side of the pool, allowed to find the platform and climbed it […] 60 seconds, where it was left for additional 20 seconds. After that the mouse was repeatedly immersed into water on the opposite side of the pool and allowed to look for platform. If it failed in finding the platform within 60 seconds the experimentator helped it to find the platform and climb it. If the mice could not find the platform itself in two consecutive attempts it was excluded from experiment. During the next two days the platform was placed 0.5 centimeter lower the water level. Every day the mice were given four attempts for finding the platform within 60 seconds. The time interval between the attempts was 20 seconds, during which the mice stayed on the platform. Every day before the first attempt mouse was placed on the platform for 20 seconds. The time needed for finding and climbing the platform was registered. The animals were sunk in water in 3 different places on the side of the pool opposite to platform. On each day of two-day testing 35-40 minutes before the beginning of training the mice were injected intraintestinally with physiological solution, Scopolamine or Scopolamine in combination with investigated compound. At least 8 animals were used in each group. On the third day the platform was removed and each animal was placed one time in the pool for a period of 60 seconds. The time each mouse spent in the area where the platform had been located during the previous days was registered. This time interval was regarded as a measure of effectiveness of training fulfilled during the previous two days. The testing was carried out during the day time in isolated laboratory using "white noise" at level of about 70 decibel above the human hearing threshold.

mice [3] = assay: Tail suspension test; type: in vivo; conditions: dose of 0.05 mg/kg during 4 days; fig. 16
Procedure: Example 20. Mice behavior in tail suspension test. In the test a mouse was suspended by tail with a sticky tape on the holder over horizontal surface at a height of 40 cm, and during 3 minutes the total time of complete immobility was recorded. Automated computerized detection of motion with videosystem and Any-maze programm were used. After administration of ligand 1.1.2(1-2) (CD-008-0045) in dose of 0.05 mg/kg during 4 days the time of complete immobility of mouse was lowered almost by factor of 2.5 (fig.16), that testifies the cutting of period of depressively-like condition.

male mice of BALB/c line [4] = assay: Mice Behavior in the Elevated Plus Maze; type: in vivo; conditions: doses of 0,05 and 0,1 mg/kg
Excerpt: Example 16. […] The length of each arm of the maze was 30cm, width is 5cm, and height of the walls was 15cm. Two opposite arms were closed from both sides and end faces by transparent walls, the other two arms were lit and opened. A mouse was placed in the center of the maze and for the next five minutes the number of entries into opened and closed arms and the time spent in each type of arms was registered. […] The animals usually avoided opened arms (the preference index is between 0.2 and 0.3). Compounds with tranquilizing action increased this index up to 0.5-0.6 or even more and reduced the number of defecations without changing the overall motion activity of the mice (the total number of their entries to the arms).

recombinant human 5-HT1A = target: T4, recombinant human 5-HT1A (Homo sapiens, UniProt P08908); assay: Radioligand binding to serotonin receptor 5-HT1A ([3H] 8-OH-DPAT, CHO membranes); conditions: read-out: 5-HT1A % inhibition
T4 construct: expressed in transfected cells; host or cells: CHO
T4 sequence (P08908 1-422): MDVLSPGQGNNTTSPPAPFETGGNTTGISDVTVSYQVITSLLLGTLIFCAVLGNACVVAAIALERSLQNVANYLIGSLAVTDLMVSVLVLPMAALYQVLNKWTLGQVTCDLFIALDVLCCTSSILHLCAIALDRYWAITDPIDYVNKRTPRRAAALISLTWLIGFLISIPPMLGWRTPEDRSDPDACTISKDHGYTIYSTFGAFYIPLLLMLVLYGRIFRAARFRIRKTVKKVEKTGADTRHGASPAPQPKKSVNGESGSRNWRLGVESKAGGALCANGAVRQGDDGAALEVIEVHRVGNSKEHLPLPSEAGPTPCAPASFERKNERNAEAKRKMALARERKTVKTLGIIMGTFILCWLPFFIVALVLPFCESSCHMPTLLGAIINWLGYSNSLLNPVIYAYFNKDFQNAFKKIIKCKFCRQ
Excerpt: J Pharmacol Exp Ther. 306(1): 301-309, 2003]. […] Metergoline is used as positive control.

[5] = target: T5, serotonin receptor 5-HT1B (Rattus norvegicus, UniProt P28564); assay: Radioligand binding to serotonin receptor 5-HT1B ([125I] cyanopindolol, rat brain cortex membranes); conditions: read-out: 5-HT1B % inhibition
T5 construct: membrane species are prepared from rat brains (Wistar) by homogenization of species of rat brain-cortices; from tissue; host or cells: rat (Wistar) brain cortex
Excerpt: Serotonin is used as positive control.

[6] = target: T6, recombinant human 5-HT2A receptor (Homo sapiens, UniProt P28223); assay: Radioligand binding to serotonin receptor 5-HT2A ([3H] Ketanserin, CHO-K1 membranes); conditions: 10 µM ligand
T6 construct: expressed in transfected cells; host or cells: CHO-K1
Excerpt: 9-C. […] J Neurochem. […] Ketanserin is used as positive control.

[7] = target: T7, recombinant human 5-HT2B receptor (Homo sapiens, UniProt P41595); assay: Radioligand binding to serotonin receptor 5-HT2B ([3H] Lysergic acid diethylamide, CHO-K1 membranes); conditions: read-out: 5-HT2B % inhibition
T7 construct: expressed in transfected cells; host or cells: CHO-K1
Procedure: For this purpose membrane species are prepared from CHO-K1 cells comprising recombinant human 5-HT2B receptor by homogenization of recombinant cells in glass homogenizer with the subsequent separation of plasmatic membranes from cell nuclei, mitochondrias and cell wreckages by differential centrifugation. […] After incubation the samples are filtered in vacuo on glass-microfiber filters G/F (Millipor, USA), filters are washed three times with cold solution of medium and radioactivity is measured by scintillation counter MicroBeta 340 (Perkin Elmer, USA). […] Ketanserin is used as positive control. The tested compounds' binding to the receptor is determined by their ability to displace the radioligand and is expressed in percent of displacement (%I). Values of %I are calculated according to the following equation: %I = (TA-CA)/(TA-NA)*100, [formula] wherein: TA - is the overall radioactivity in the presence of radioligand only, CA - is the radioactivity in the presence of radioligand and tested compound and NA - is the radioactivity in the presence of radioligand and Serotonin (10 µM).

[8] = target: T8, recombinant human 5-HT6 receptor (Homo sapiens, UniProt P50406); assay: Radioligand binding to serotonin receptor 5-HT6 ([3H] Lysergic acid diethylamide, HeLa membranes); conditions: read-out: 5-HT6 % inhibition
T8 construct: expressed in transfected cells; host or cells: HeLa
Excerpt: Mol Pharmacol. 43:320-327, 1993]. […] Methiothepin is used as positive control.

T3 sequence (P35462 whole entry): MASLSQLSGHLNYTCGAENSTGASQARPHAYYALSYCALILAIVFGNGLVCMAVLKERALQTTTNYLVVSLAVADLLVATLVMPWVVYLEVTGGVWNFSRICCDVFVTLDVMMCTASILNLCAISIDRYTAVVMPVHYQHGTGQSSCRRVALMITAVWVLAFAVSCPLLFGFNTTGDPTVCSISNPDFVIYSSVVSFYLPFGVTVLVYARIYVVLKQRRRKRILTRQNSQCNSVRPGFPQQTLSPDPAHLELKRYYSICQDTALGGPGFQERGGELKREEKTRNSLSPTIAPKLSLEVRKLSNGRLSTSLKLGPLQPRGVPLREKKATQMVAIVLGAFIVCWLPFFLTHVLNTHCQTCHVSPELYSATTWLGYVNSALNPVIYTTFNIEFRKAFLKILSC
T6 sequence (P28223 whole entry): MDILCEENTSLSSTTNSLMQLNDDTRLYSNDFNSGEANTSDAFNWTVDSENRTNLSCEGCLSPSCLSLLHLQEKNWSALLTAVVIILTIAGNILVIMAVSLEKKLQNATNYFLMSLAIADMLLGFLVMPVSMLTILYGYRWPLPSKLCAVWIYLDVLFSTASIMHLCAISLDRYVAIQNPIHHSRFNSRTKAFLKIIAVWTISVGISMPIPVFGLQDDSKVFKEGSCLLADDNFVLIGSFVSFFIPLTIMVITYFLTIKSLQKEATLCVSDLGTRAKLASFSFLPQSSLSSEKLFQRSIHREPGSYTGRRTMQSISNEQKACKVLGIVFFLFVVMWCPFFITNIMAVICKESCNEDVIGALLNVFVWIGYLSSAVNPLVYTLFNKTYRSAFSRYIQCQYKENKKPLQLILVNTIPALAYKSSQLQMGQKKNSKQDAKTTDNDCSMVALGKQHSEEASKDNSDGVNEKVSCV
T8 sequence (P50406 whole entry): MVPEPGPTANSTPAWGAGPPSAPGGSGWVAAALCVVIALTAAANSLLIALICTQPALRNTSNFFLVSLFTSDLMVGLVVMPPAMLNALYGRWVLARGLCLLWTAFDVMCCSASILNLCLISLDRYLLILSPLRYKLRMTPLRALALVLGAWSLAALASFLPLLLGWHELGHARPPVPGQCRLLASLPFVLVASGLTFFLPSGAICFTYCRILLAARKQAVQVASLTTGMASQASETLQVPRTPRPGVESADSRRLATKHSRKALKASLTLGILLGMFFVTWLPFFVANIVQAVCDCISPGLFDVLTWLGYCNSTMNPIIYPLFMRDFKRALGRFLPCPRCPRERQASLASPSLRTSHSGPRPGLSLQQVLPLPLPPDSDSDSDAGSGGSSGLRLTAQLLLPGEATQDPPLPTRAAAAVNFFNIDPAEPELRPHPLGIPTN
T7 sequence (P41595 whole entry): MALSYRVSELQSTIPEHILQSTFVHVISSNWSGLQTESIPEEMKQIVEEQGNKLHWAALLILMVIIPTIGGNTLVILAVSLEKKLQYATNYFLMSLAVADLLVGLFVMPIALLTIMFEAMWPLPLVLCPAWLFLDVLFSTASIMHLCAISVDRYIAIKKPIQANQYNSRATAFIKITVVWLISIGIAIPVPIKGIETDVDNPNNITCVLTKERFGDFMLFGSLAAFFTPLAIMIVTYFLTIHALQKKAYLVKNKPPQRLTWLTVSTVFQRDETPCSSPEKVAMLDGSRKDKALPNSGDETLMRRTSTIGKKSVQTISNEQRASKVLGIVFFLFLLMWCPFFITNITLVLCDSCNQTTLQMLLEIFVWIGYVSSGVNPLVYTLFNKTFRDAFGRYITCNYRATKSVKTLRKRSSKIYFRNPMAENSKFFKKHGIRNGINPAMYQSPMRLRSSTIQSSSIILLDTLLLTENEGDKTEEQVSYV
T5 sequence (P28564 whole entry): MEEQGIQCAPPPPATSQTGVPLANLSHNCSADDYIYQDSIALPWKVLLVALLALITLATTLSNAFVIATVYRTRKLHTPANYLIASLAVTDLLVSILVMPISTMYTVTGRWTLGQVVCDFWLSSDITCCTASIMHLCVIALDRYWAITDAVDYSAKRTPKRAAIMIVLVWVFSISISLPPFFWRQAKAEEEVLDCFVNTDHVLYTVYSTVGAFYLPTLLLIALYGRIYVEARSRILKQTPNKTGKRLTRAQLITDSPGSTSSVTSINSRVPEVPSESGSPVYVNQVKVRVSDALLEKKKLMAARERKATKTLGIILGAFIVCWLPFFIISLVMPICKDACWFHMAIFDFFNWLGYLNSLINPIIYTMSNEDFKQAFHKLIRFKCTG
T2 sequence (P21728 whole entry): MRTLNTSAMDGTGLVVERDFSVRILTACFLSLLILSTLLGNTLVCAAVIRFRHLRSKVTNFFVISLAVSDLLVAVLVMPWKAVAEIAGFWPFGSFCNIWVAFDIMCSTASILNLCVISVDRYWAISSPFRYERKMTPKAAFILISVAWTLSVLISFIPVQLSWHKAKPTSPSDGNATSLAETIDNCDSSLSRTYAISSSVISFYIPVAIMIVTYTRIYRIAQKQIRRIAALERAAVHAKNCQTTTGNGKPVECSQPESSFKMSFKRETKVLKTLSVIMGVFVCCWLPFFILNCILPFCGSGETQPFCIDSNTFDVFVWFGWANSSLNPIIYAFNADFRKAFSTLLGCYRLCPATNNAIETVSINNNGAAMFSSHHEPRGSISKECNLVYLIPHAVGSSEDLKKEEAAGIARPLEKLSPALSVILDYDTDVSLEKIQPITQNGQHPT

In the case of Cc1ccc2c(c1)[C@H]1CN(C)CCC[C@@H]1N2CCc1ccc(C)nc1 (relative stereo) [1.6.2(11)], the inhibition at 10 µM (human D4.2 receptor) is reported as 6% and the “% inhibition” value (imidazoline receptor I2) is reported as 83%.
Cc1ccc2c(c1)c1c(n2CCc2ccccc2)CCN(C)C1 [1.1.2(1-2) ·2HCl] gave an inhibition at 10 µM (human D1 receptor) of 89%, an IC50 (human D3 receptor) of 256 nM and a Ki (human D3 receptor; Receptor D3) of 868 nM. The nH (human D3 receptor; Receptor D3) was 0.797, the inhibition at 10 µM (human D3 receptor; read-out: Dopamine receptors, % inhibition D3) was 99% and the inhibition at 10 µM (human D4.2 receptor) was 103%.
With Cc1ccc2c(c1)c1c(n2CCc2ccccc2)CCN(C)C1 [1.1.2(1-2), 2,8-dimethyl-5-phenethyl-1,2,3,4-tetrahydro-1H-pyrido[4,3-b]indole] the “enhancement of memory disturbed by Scopolamine” value (“enhancement of memory disturbed” below) (male mice of BALB/c line [1]) was “improve memory”, the “memory disorders caused by Scopolamine (time spent in area of the platform)” value (“memory disorders caused by Scopolamine” for short) (mice [2]) was “decreasing memory disorders” and the “time of complete immobility, lowered by factor” value (mice [3]) was ~2.5.
In the case of Cc1ccc2c(c1)c1c(n2CCc2ccc(C)nc2)CCN(C)C1.Cl.Cl [1.1.2(4-2)], the “enhancement of memory disturbed” value (male mice of BALB/c line [1]) is reported as “improve memory”, the “Anxiolytic (tranquilizing) action” value (male mice of BALB/c line [4]) is reported as “exhibit analogous action” and the “memory disorders caused by Scopolamine” value (mice [2]) is reported as “decreasing memory disorders”.
Compound Cc1ccc2c(c1)c1c(n2CCc2ccncc2)CCN(C)C1 [1.1.2(5-2)·2HCl] has an inhibition at 10 µM (recombinant human 5-HT1A) of 17%, an inhibition at 10 µM [5] of 14% and an inhibition at 10 µM [6] of 88%. The inhibition at 10 µM [7] was 80%, the inhibition at 10 µM [8] was 91% and the “enhancement of memory disturbed” value (male mice of BALB/c line [1]) was “improve memory”.
Cc1ccc2c(c1)c1c(n2CCc2ccncc2)CCCN(C)C1 [1.2.2(5-3)·2HCl] was tested, and the “memory disorders caused by Scopolamine” value (mice [2]) was “decreasing memory disorders”.

Reference: patent publication EP2236511A2, “LIGANDS OF ALPHA-ADRENOCEPTORS AND OF DOPAMINE, HISTAMINE, IMIDAZOLINE AND SEROTONIN RECEPTORS AND THE USE THEREOF” (priority 2007, dated 2009)
